Columns and labels:
Type in all cases: in vivo
[1] = system: velvetleaf (Abutilon theophrasti); assay: Test A pre-/postemergence plant response
How it was run: (§1)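 Injury scores (0, no effect; 100, complete control) come from visual comparison with untreated controls roughly ten days post-treatment. Test chemicals in a surfactant-containing non-phytotoxic solvent were applied as a directed soil spray preemergence and to one- to two-leaf seedlings postemergence.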

[2] = system: barnyardgrass (Echinochloa crus-galli); assay: Test A pre-/postemergence plant response
How it was run: as §1

[3] = system: large crabgrass (Digitaria sanguinalis); assay: Test A pre-/postemergence plant response
How it was run: as §1

[4] = system: giant foxtail (Setaria faberii); assay: Test A pre-/postemergence plant response
How it was run: as §1

[5] = system: morningglory (Ipomoea spp.); assay: Test A pre-/postemergence plant response
How it was run: as §1

[6] = system: pigweed (Amaranthus retroflexus); assay: Test A pre-/postemergence plant response
How it was run: as §1

[7] = system: corn (Zea mays); assay: Test A pre-/postemergence plant response
How it was run: as §1

[8] = system: wheat (Triticum aestivum); assay: Test A pre-/postemergence plant response
How it was run: as §1

[9] = system: barnyardgrass (Echinochloa crus-galli); assay: Test B flooded paddy test
How it was run: (§2)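 Visual scores run from 0 (no effect) to 100 (complete control), assigned by comparison with controls 13 to 15 days after treatment. Test compounds went straight into water standing 3 cm above the soil, around plants at the 2-leaf stage kept in a greenhouse.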

[10] = system: umbrella sedge (Cyperus difformis); assay: Test B flooded paddy test
How it was run: as §2

[11] = system: ducksalad (Heteranthera limosa); assay: Test B flooded paddy test
How it was run: as §2

[12] = system: rice (Oryza sativa); assay: Test B flooded paddy test
How it was run: as §2

[13] = system: winter barley (Hordeum vulgare); assay: Test B postemergence plant response; details: for Plant response rating, Barley: Postemergence
How it was run: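 Plants at the 1- to 4-leaf stage (2 to 18 cm tall), grown in pots of peat moss/vermiculite medium with wetting agent and starter nutrients, received postemergence applications of test chemicals. After 13 to 15 days in a greenhouse, injury was rated visually against untreated controls on a 0 (no effect) to 100 (complete control) scale.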

[14] = Postemergence, 125 g ai/ha, 0 to 100 scale where 0 is no effect and 100 is complete control
[15] = Postemergence, 500 g ai/ha, visual injury, 0 to 100 scale (0 no effect, 100 complete control), approx. ten days
[16] = Preemergence, 125 g ai/ha, 0 to 100 scale, 0 = no effect, 100 = complete control
[17] = Preemergence, 500 g ai/ha, 0 to 100 scale, 0 = no effect, 100 = complete control
[18] = 250 g ai/ha, flooded paddy test, visual rating on 0 to 100 scale (0 no effect, 100 complete control) after 13 to 15 days
[19] = Flood (flooded paddy test), 62 g ai/ha, scale of 0 to 100 where 0 is no effect and 100 is complete control, 13 to 15 days

SMILES: O=C1CCCC(O)=C1C(=O)c1cnc(-c2cccs2)n(C2CCCCC2)c1=O [Compound 189]
- Plant response rating, Velvetleaf [1, 14]: 100
- Velvetleaf plant response rating [1, 15]: 100
- Plant response rating, Velvetleaf [1, 16]: 70
- Plant response rating, Velvetleaf [1, 17]: 100
- Plant response rating, Barnyardgrass [2, 14]: 90
- Barnyardgrass plant response rating [2, 15]: 90
- Plant response rating, Barnyardgrass [2, 16]: 20
- Plant response rating, Barnyardgrass [2, 17]: 90
- Plant response rating, Crabgrass, Large [3, 14]: 90
- Crabgrass, Large plant response rating [3, 15]: 90
- Plant response rating, Crabgrass, Large [3, 16]: 30
- Plant response rating, Crabgrass, Large [3, 17]: 80
- Plant response rating, Foxtail, Giant [4, 14]: 80
- Foxtail, Giant plant response rating [4, 15]: 90
- Plant response rating, Foxtail, Giant [4, 16]: 30
- Plant response rating, Foxtail, Giant [4, 17]: 60
- Plant response rating, Morningglory [5, 14]: 100
- Morningglory plant response rating [5, 15]: 100
- Plant response rating, Morningglory [5, 17]: 80
- Plant response rating, Pigweed [6, 14]: 100
- Pigweed plant response rating [6, 15]: 100
- Plant response rating, Pigweed [6, 16]: 70
- Plant response rating, Pigweed [6, 17]: 100
- Plant response rating, Corn [7, 14]: 10
- Corn plant response rating [7, 15]: 40
- Plant response rating, Corn [7, 16]: 0
- Plant response rating, Corn [7, 17]: 0
- Plant response rating, Wheat [8, 14]: 0
- Wheat plant response rating [8, 15]: 0
- Plant response rating, Wheat [8, 16]: 0
- Plant response rating, Wheat [8, 17]: 0
- Plant response rating, Flood, Barnyardgrass [9, 18]: 70
- Plant response rating, Barnyardgrass [9, 19]: 30
- Plant response rating, Flood, Sedge, Umbrella [10, 18]: 100
- Plant response rating, Sedge, Umbrella [10, 19]: 95
- Plant response rating, Flood, Ducksalad [11, 18]: 100
- Plant response rating, Ducksalad [11, 19]: 100
- Plant response rating, Flood, Rice [12, 18]: 60
- Plant response rating, Rice [12, 19]: 20
- Barley plant response rating (0 to 100 scale) ([13]; 62 g ai/ha, postemergence, 0 is no effect, 100 is complete control, 13 to 15 days): 5
- Plant response rating, Barley ([13]; 31 g ai/ha, 0 to 100 scale (0 no effect, 100 complete control)): 0
- Plant response rating, Barley ([13]; 125 g ai/ha, scale 0 to 100 (0 no effect, 100 complete control)): 15
- Plant response rating, Barley ([13]; 250 g ai/ha, scale 0 to 100 (0 no effect, 100 complete control), 13 to 15 days): 40

Source: patent US8952024B2, “Herbicidal pyrimidone derivatives” (E I du Pont de Nemours and Company, priority 2009, dated 2015)
